Holding throughout (type): biochemical
For experiment [1], the target named is human JAK1 (a.a. 837-1142) (Homo sapiens, UniProt P23458). The experiment is described as follows: In vitro JAK kinase assay (HTRF), JAK1. The conditions noted are these: 1 mM ATP. A digest of the protocol:
(§1)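 Baculovirus-expressed catalytic domains (JAK1 a.a. 837-1142, JAK2 a.a. 828-1132) phosphorylate 500 nM biotinylated peptide at 1 mM ATP, Tris pH 7.8, 1 h at room temperature. EDTA stop and HTRF detection with Eu-Py20/SA-APC; IC50 values derived.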
(Time-resolved FRET reads energy transfer from a long-lived donor to a nearby acceptor.)

Experiment [2] relates to human JAK1 (a.a. 837-1142). The experiment is described as follows: In vitro JAK kinase assay (HTRF), JAK1. The conditions noted are these: ratio of IC50s, 1 mM ATP. A digest of the protocol: as §1
Experiment [3] deals with human JAK2 (a.a. 828-1132) (Homo sapiens (Human), UniProt O60674). The experiment can be described thus: In vitro JAK kinase assay (HTRF), JAK2. Further details: key to JAK2 IC50 (nM): + indicates an IC50 of ≤100 nM; ++ indicates an IC50 of ≤1000 nM; +++ indicates an IC50 of ≤2000 nM; ++++ indicates an IC50 of >2000 nM; +++++ indicates that the IC50 was greater than the highest concentration tested. The settings on record: 1 mM ATP. The method, then: Compounds herein were tested for inhibitory activity of JAK targets according to the following in vitro assay described in Park et al., Analytical Biochemistry 1999, 269, 94-104. The catalytic domains of human JAK1 (a.a. 837-1142), JAK2 (a.a. 828-1132) and JAK3 (a.a. 781-1124) were expressed using baculovirus in insect cells and purified. The catalytic activity of JAK1, JAK2 or JAK3 was assayed by measuring the phosphorylation of a biotinylated peptide. The phosphorylated peptide was detected by homogenous time resolved fluorescence (HTRF). IC50s of compounds were measured for each kinase in the 40 μL reactions that contain the enzyme, ATP and 500 nM peptide in 50 mM Tris (pH 7.8) buffer with 100 mM NaCl, 5 mM DTT, and 0.1 mg/mL (0.01%) BSA. For the 1 mM IC50 measurements, ATP concentration in the reactions was 1 mM. Reactions were carried out at room temperature for 1 hour and then stopped with 20 μL 45 mM EDTA, 300 nM SA-APC, 6 nM Eu-Py20 in assay buffer (Perkin Elmer, Boston, Mass.). Binding to the Europium labeled antibody took place for 40 minutes and HTRF signal was measured on a PHERA star plate reader (BMG, Cary, N.C.). The Example compounds were each tested in the Example A assay (see Table 1 for data for the compounds of the examples as tested by the assay of Example A at 1 mM ATP).
Sequence of human JAK2 (a.a. 828-1132) (O60674 828-1132): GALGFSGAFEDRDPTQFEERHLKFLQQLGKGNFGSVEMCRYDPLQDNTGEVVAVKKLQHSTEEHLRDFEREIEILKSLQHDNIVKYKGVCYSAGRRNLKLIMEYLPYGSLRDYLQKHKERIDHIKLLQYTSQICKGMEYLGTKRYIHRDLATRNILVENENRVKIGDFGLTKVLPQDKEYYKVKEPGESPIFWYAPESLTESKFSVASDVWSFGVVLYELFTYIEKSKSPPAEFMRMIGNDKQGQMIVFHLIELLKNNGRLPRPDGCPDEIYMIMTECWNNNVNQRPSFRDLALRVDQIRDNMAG

Usually IC50 stands for the concentration that inhibits the measured activity by half. Regarding `C[C@@H](O)c1nc2cnc3ccsc3c2n1[C@H]1CC[C@H](CC#N)[C@H](O)C1` (single isomer, unassigned) [36 (first peak)], the values for the IC50 in experiment [1] and in experiment [3] were no more than 0.1 µM and greater than 2 µM, respectively. Also, in experiment [2], the JAK2/JAK1 was greater than 10.
For `C[C@@H](O)c1nc2cnc3ccsc3c2n1[C@@H]1CC[C@@H](CC#N)[C@@H](O)C1` (single isomer, unassigned) [36 (second peak)] the same measures were no more than 0.1 µM, no more than 1 µM and greater than 10.
`C[C@@H](O)c1nc2cnc3ccsc3c2n1[C@H]1CC[C@H](CC#N)[C@@H](O)C1` (single isomer, unassigned) [37 (first peak)]: the IC50 in experiment [1] was no more than 1 µM. Further, the JAK2/JAK1 in experiment [2] is recorded as greater than 10. Further, in experiment [3], the “JAK2 IC50 (nM)” value is on record as “+++++”.
Consider `C[C@@H](O)c1nc2cnc3ccsc3c2n1[C@@H]1CC[C@@H](CC#N)[C@H](O)C1` (single isomer, unassigned) [37 (second peak)], for which the concentration for half-maximal inhibition (IC50) in experiment [1] was no more than 0.1 µM; in experiment [3], no more than 1 µM. Further, in experiment [2], the JAK2/JAK1 is reported as greater than 10.
`CCc1nc2cnc3ccsc3c2n1[C@H]1CC[C@H](CC#N)[C@@H](O)C1` (single isomer, unassigned) [40 (first peak)]: the IC50 in experiment [1] was no more than 0.1 µM; in experiment [3], no more than 1 µM. The JAK2/JAK1 in experiment [2] is reported as greater than 10.
In the case of `CCc1nc2cnc3ccsc3c2n1[C@@H]1CC[C@@H](CC#N)[C@H](O)C1` (single isomer, unassigned) [40 (second peak)], in experiment [1], the IC50 is greater than 2 µM. Moreover, in experiment [3], the “JAK2 IC50 (nM)” value was “+++++”.
In experiment [1], `Cc1nc2cnc3ccsc3c2n1[C@@H]1CC[C@@H](CC#N)[C@H](O)C1` (single isomer, unassigned) [41 (second peak)] showed an IC50 greater than 2 µM. Besides, the “JAK2 IC50 (nM)” value in experiment [3] was “+++++”.
With `C[C@@H](O)c1nc2cnc3ccsc3c2n1[C@H]1CCCN(C(=O)CCC(F)(F)F)C1` [Example 52, (1R)-1-{1-[(3S)-1-(4,4,4-Trifluorobutanoyl)piperidin-3-yl]-1H-imidazo[4,5-d]thieno[3,2-b]pyridin-2-yl}ethanol], the JAK2/JAK1 in experiment [2] is given as greater than 10. The “JAK2 IC50 (nM)” value in experiment [3] was “+++++”.
On to `CCCOC(=O)NC[C@H]1CC[C@H](n2c([C@@H](C)O)nc3cnc4ccsc4c32)CC1` [Example 83, Propyl [(trans-4-{2-[(1R)-1-hydroxyethyl]-1H-imidazo[4,5-d]thieno[3,2-b]pyridin-1-yl}cyclohexyl)methyl]carbamate], for which the JAK2/JAK1 in experiment [2] is reported as greater than 10.
Still for that read-out and setting: with `CC(C)OC(=O)NC[C@H]1CC[C@H](n2c([C@@H](C)O)nc3cnc4ccsc4c32)CC1` [Example 84, Isopropyl [(trans-4-{2-[(1R)-1-hydroxyethyl]-1H-imidazo[4,5-d]thieno[3,2-b]pyridin-1-yl}cyclohexyl)methyl]carbamate] the figure was greater than 10; with `C[C@@H](O)c1nc2cnc3ccsc3c2n1[C@H]1CC[C@H](CNC(=O)OC2CCOC2)CC1` (stereo partly drawn) [Example 85, Tetrahydrofuran-3-yl [(trans-4-{2-[(1R)-1-hydroxyethyl]-1H-imidazo[4,5-d]thieno[3,2-b]pyridin-1-yl}cyclohexyl)methyl]carbamate], greater than 10; with `COC(=O)NC[C@H]1CC[C@H](n2c(CC#N)nc3cnc4ccsc4c32)CC1` [Example 86, Methyl ({trans-4-[2-(cyanomethyl)-1H-imidazo[4,5-d]thieno[3,2-b]pyridin-1-yl]cyclohexyl}methyl)carbamate], greater than 10.
The same measure, in the same setting: then `CCOC(=O)NC[C@H]1CC[C@H](n2c(CC#N)nc3cnc4ccsc4c32)CC1` [Example 87, Ethyl ({trans-4-[2-(cyanomethyl)-1H-imidazo[4,5-d]thieno[3,2-b]pyridin-1-yl]cyclohexyl}methyl)carbamate], with greater than 10; and `CC(C)OC(=O)NC[C@H]1CC[C@H](n2c(CC#N)nc3cnc4ccsc4c32)CC1` [Example 88, Isopropyl ({trans-4-[2-(cyanomethyl)-1H-imidazo[4,5-d]thieno[3,2-b]pyridin-1-yl]cyclohexyl}methyl)carbamate], with greater than 10; and `CCC(=O)NC[C@H]1CC[C@H](n2c(CC#N)nc3cnc4ccsc4c32)CC1` [Example 89, N-({trans-4-[2-(Cyanomethyl)-1H-imidazo[4,5-d]thieno[3,2-b]pyridin-1-yl]cyclohexyl}methyl)propanamide], with greater than 10.
In the case of `N#CCc1nc2cnc3ccsc3c2n1[C@H]1CC[C@H](CC#N)CC1` [Example 90, {1-[trans-4-(Cyanomethyl)cyclohexyl]-1H-imidazo[4,5-d]thieno[3,2-b]pyridin-2-yl}acetonitrile], in experiment [2], the JAK2/JAK1 is reported as greater than 10.
In the case of `N#CC[C@H]1CC[C@H](n2c(CO)nc3cnc4ccsc4c32)CO1` [Example 91, {(2R,5S)-5-[2-(Hydroxymethyl)-1H-imidazo[4,5-d]thieno[3,2-b]pyridin-1-yl]tetrahydro-2H-pyran-2-yl}acetonitrile], in experiment [2], the JAK2/JAK1 was greater than 10.
